Source: PubChem BioAssay AID328 (DTP/NCI, 2004)
Several values for one entry are separate records, joined by “and”; a condition that tells them apart may be missing. Equal entries are not always repeated. Inconclusive results and toxic doses are left out.

Test system: BDF1 mice, P388 leukemia ip, median survival T/C
Assay: NCI In Vivo Anticancer Drug Screen. Data for tumor model P388 Leukemia (intraperitoneal) in B6D2F1 (BDF1) mice
Conditions: endpoint: median survival time, higher = longer survival
How it was run: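 Steps: implant the tumour, treat one group with compound and another with vehicle, record survival, then divide treated by control.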

[1] = dose: 100.0 mg/kg/injection, schedule: Q01DX009 (ip), vehicle: Klucel (hydroxypropylcellulose) (HPC)
[2] = dose: 400.0 mg/kg/injection, schedule: Q01DX009 (ip), vehicle: Klucel (hydroxypropylcellulose) (HPC)
[3] = dose: 200.0 mg/kg/injection, schedule: Q01DX009 (ip), vehicle: Klucel (hydroxypropylcellulose) (HPC)
[4] = dose: 50.0 mg/kg/injection, schedule: Q01DX009 (ip), vehicle: Klucel (hydroxypropylcellulose) (HPC)
[5] = dose: 50.0 mg/kg/injection, schedule: Q01DX009 (ip), vehicle: saline with Tween-80
[6] = dose: 50.0 mg/kg/injection, schedule: Q04DX003 (ip), vehicle: saline
[7] = dose: 100.0 mg/kg/injection, schedule: Q04DX003 (ip), vehicle: saline
[8] = dose: 200.0 mg/kg/injection, schedule: Q04DX003 (ip), vehicle: saline

Compound: CCOC(=O)c1cc(C(=O)OCC)c(C#N)c(=O)[nH]1
- T/C [1]: 96 % of control
- T/C (dose: 100.0 mg/kg/injection, schedule: Q04DX003 (ip), vehicle: Klucel (hydroxypropylcellulose) (HPC)): 91 % of control
- T/C (dose: 200.0 mg/kg/injection, schedule: Q04DX003 (ip), vehicle: Klucel (hydroxypropylcellulose) (HPC)): 91 % of control
- T/C [2]: 92 % of control
- T/C (dose: 400.0 mg/kg/injection, schedule: Q04DX003 (ip), vehicle: Klucel (hydroxypropylcellulose) (HPC)): 100 % of control

Compound: CC(Cl)CN(CC(C)Cl)c1ccc(S(=O)(=O)Nc2ncccn2)cc1 (stereo not given)
- T/C (dose: 12.0 mg/kg/injection, schedule: Q01DX009 (ip), vehicle: gum acacia): 152 % of control
- T/C (dose: 26.0 mg/kg/injection, schedule: Q01DX009 (ip), vehicle: gum acacia): 166 % of control and 172 % of control
- T/C (dose: 40.0 mg/kg/injection, schedule: Q01DX009 (ip), vehicle: gum acacia): 175 % of control
- T/C (dose: 50.0 mg/kg/injection, schedule: Q01DX009 (ip), vehicle: gum acacia): 190 % of control
- T/C (dose: 50.0 mg/kg/injection, schedule: Q04DX003 (ip), vehicle: gum acacia): 100 % of control
- T/C (dose: 60.0 mg/kg/injection, schedule: Q01DX009 (ip), vehicle: gum acacia): 183 % of control
- T/C (dose: 90.0 mg/kg/injection, schedule: Q01DX009 (ip), vehicle: gum acacia): 183 % of control and 215 % of control
- T/C (dose: 100.0 mg/kg/injection, schedule: Q01DX009 (ip), vehicle: gum acacia): 272 % of control
- T/C (dose: 100.0 mg/kg/injection, schedule: Q04DX003 (ip), vehicle: gum acacia): 100 % of control
- T/C (dose: 133.0 mg/kg/injection, schedule: Q01DX009 (ip), vehicle: gum acacia): 230 % of control
- T/C (dose: 200.0 mg/kg/injection, schedule: Q04DX003 (ip), vehicle: gum acacia): 105 % of control

Compound: CC1=NNC(=O)C1
- T/C (dose: 100.0 mg/kg/injection, schedule: Q01DX001 (ip), vehicle: saline sonified): 100 % of control
- T/C (dose: 200.0 mg/kg/injection, schedule: Q01DX001 (ip), vehicle: saline sonified): 100 % of control
- T/C (dose: 400.0 mg/kg/injection, schedule: Q01DX001 (ip), vehicle: saline sonified): 105 % of control

Compound: COc1cc2c(cc1OC)C(OC)N(C)c1c-2ccc2cc(OC)c(OC)cc12 (stereo not given)
- T/C (dose: 100.0 mg/kg/injection, schedule: Q04DX003 (ip), vehicle: water): 161 % of control
- T/C (dose: 200.0 mg/kg/injection, schedule: Q04DX003 (ip), vehicle: water): 161 % of control
- T/C (dose: 300.0 mg/kg/injection, schedule: Q04DX003 (ip), vehicle: water): 166 % of control
- T/C (dose: 400.0 mg/kg/injection, schedule: Q04DX003 (ip), vehicle: water): 102 % of control

Compound: Nc1c(Br)cc(Br)c2ccccc12
- T/C [1]: 95 % of control
- T/C [3]: 113 % of control
- T/C [2]: 109 % of control

Compound: CC(C)(C)OC(=O)NNC(=O)c1ccc([N+](=O)[O-])cc1
- T/C [4]: 90 % of control
- T/C [3]: 95 % of control

Compound: O=C1NC(=O)C([N+](=O)[O-])=C(O)C1=O
- T/C (dose: 1.0 mg/kg/injection, schedule: Q01DX009 (ip), vehicle: saline with Tween-80): 110 % of control
- T/C (dose: 4.0 mg/kg/injection, schedule: Q01DX009 (ip), vehicle: saline with Tween-80): 105 % of control
- T/C (dose: 8.0 mg/kg/injection, schedule: Q01DX009 (ip), vehicle: saline with Tween-80): 100 % of control
- T/C (dose: 9.0 mg/kg/injection, schedule: Q01DX009 (ip), vehicle: saline with Tween-80): 150 % of control
- T/C (dose: 15.0 mg/kg/injection, schedule: Q01DX009 (ip), vehicle: saline with Tween-80): 95 % of control
- T/C (dose: 18.0 mg/kg/injection, schedule: Q01DX009 (ip), vehicle: saline with Tween-80): 110 % of control
- T/C (dose: 25.0 mg/kg/injection, schedule: Q04DX003 (ip), vehicle: other): 104 % of control
- T/C (dose: 35.0 mg/kg/injection, schedule: Q01DX009 (ip), vehicle: saline with Tween-80): 100 % of control and 120 % of control
- T/C (dose: 35.0 mg/kg/injection, schedule: Q04DX003 (ip), vehicle: other): 104 % of control
- T/C [5]: 90 % of control and 95 % of control
- T/C (dose: 50.0 mg/kg/injection, schedule: Q04DX003 (ip), vehicle: other): 104 % of control
- T/C [6]: 118 % of control
- T/C (dose: 75.0 mg/kg/injection, schedule: Q01DX009 (ip), vehicle: saline with Tween-80): 105 % of control
- T/C (dose: 75.0 mg/kg/injection, schedule: Q04DX003 (ip), vehicle: other): 100 % of control
- T/C [7]: 109 % of control
- T/C (dose: 150.0 mg/kg/injection, schedule: Q01DX009 (ip), vehicle: saline with Tween-80): 95 % of control
- T/C [8]: 104 % of control and 122 % of control
- T/C (dose: 300.0 mg/kg/injection, schedule: Q01DX009 (ip), vehicle: saline with Tween-80): 90 % of control

Compound: CC(/C=C/C=C/c1ccccc1)=N\O
- T/C [3]: 90 % of control
- T/C [2]: 95 % of control

Compound: C[S+](C)CC(=O)c1ccccc1
- T/C (dose: 50.0 mg/kg/injection, schedule: Q01DX001 (ip), vehicle: saline): 116 % of control
- T/C [6]: 91 % of control
- T/C (dose: 100.0 mg/kg/injection, schedule: Q01DX001 (ip), vehicle: saline): 116 % of control
- T/C [7]: 95 % of control
- T/C (dose: 200.0 mg/kg/injection, schedule: Q01DX001 (ip), vehicle: saline): 112 % of control
- T/C [8]: 95 % of control

Compound: CCC(C)C1NC(=O)C(NC(=O)c2c3nc4c(C(=O)NC5C(=O)NC(C(C)CC)C(=O)N6CCCC6C(=O)N(C)CC(=O)N(C)C(C(C)C)C(=O)OC5C)cc(N)c(C)c4oc-3c(C)c(=O)c2N)C(C)OC(=O)C(C(C)C)N(C)C(=O)CN(C)C(=O)C2CCCN2C1=O (stereo not given)
- T/C (dose: 0.15 mg/kg/injection, schedule: Q04DX003 (ip), vehicle: saline + alcohol): 206 % of control
- T/C (dose: 0.3 mg/kg/injection, schedule: Q04DX003 (ip), vehicle: saline + alcohol): 227 % of control
- T/C (dose: 0.6 mg/kg/injection, schedule: Q04DX003 (ip), vehicle: saline + alcohol): 255 % of control and 312 % of control
- T/C (dose: 1.2 mg/kg/injection, schedule: Q04DX003 (ip), vehicle: saline + alcohol): 197 % of control
- T/C (dose: 25.0 micrograms/kg/injection, schedule: Q01DX009 (ip), vehicle: saline + alcohol): 190 % of control
- T/C (dose: 50.0 micrograms/kg/injection, schedule: Q01DX009 (ip), vehicle: saline + alcohol): 236 % of control
- T/C (dose: 100.0 micrograms/kg/injection, schedule: Q01DX009 (ip), vehicle: saline + alcohol): 232 % of control
- T/C (dose: 200.0 micrograms/kg/injection, schedule: Q01DX009 (ip), vehicle: saline + alcohol): 291 % of control
- T/C (dose: 400.0 micrograms/kg/injection, schedule: Q01DX009 (ip), vehicle: saline + alcohol): 86 % of control

Compound: COC(=O)C(Cl)(Cl)N=Nc1c(Cl)cc(Cl)c(C)c1Cl
- T/C (dose: 25.0 mg/kg/injection, schedule: Q01DX009 (ip), vehicle: saline with Tween-80): 119 % of control
- T/C [5]: 124 % of control
- T/C (dose: 200.0 mg/kg/injection, schedule: Q01DX009 (ip), vehicle: saline with Tween-80): 89 % of control

Compound: Nc1nnc(N)s1
- T/C (dose: 100.0 mg/kg/injection, schedule: Q04DX003 (ip), vehicle: saline sonified): 100 % of control
- T/C (dose: 200.0 mg/kg/injection, schedule: Q04DX003 (ip), vehicle: saline sonified): 100 % of control
- T/C (dose: 400.0 mg/kg/injection, schedule: Q04DX003 (ip), vehicle: saline sonified): 100 % of control

Compound: CCC(C)C(NC(=O)CCN)C(=O)O (stereo not given)
- T/C (dose: 50.0 mg/kg/injection, schedule: Q01DX005 (ip), vehicle: saline): 104 % of control
- T/C (dose: 100.0 mg/kg/injection, schedule: Q01DX005 (ip), vehicle: saline): 103 % of control
- T/C (dose: 200.0 mg/kg/injection, schedule: Q01DX005 (ip), vehicle: saline): 100 % of control

Compound: O=S(=O)(O)c1ccc(/C2=c3\cc/c([n-]3)=C(\c3ccc(S(=O)(=O)O)cc3)c3ccc([n-]3)/C(c3ccc(S(=O)(=O)O)cc3)=c3/cc/c([n-]3)=C(\c3ccc(S(=O)(=O)O)cc3)c3ccc2[n-]3)cc1.[Zn]
- T/C (dose: 62.5 mg/kg/injection, schedule: Q01DX009 (ip), vehicle: saline with Tween-80): 106 % of control

Compound: COc1cc(/C=C(/C)[N+](=O)[O-])ccc1O
- T/C (dose: 12.5 mg/kg/injection, schedule: Q01DX009 (ip), vehicle: carboxymethylcellulose (CMC)): 118 % of control
- T/C (dose: 18.75 mg/kg/injection, schedule: Q01DX009 (ip), vehicle: Klucel (hydroxypropylcellulose) (HPC)): 121 % of control
- T/C (dose: 25.0 mg/kg/injection, schedule: Q01DX009 (ip), vehicle: Klucel (hydroxypropylcellulose) (HPC)): 103 % of control and 112 % of control
- T/C [4]: 116 % of control
- T/C (dose: 50.0 mg/kg/injection, schedule: Q01DX009 (ip), vehicle: saline): 122 % of control
- T/C [6]: 109 % of control
- T/C [1]: 114 % of control
- T/C (dose: 100.0 mg/kg/injection, schedule: Q01DX009 (ip), vehicle: saline): 92 % of control
- T/C [7]: 113 % of control
- T/C [3]: 114 % of control
- T/C (dose: 200.0 mg/kg/injection, schedule: Q01DX009 (ip), vehicle: saline): 122 % of control
- T/C [8]: 118 % of control
